Laboratory results from patent US5863913A, “Aromatic compound and pharmaceutical composition” (Kureha Chemical Industry Co., Ltd., priority 1996, dated 1999).

Key:
[1] = test system: kidney disease model rats; test: Action to lower blood pressure in kidney disease model rats (tail cuff); assay type: in vivo, Sprague-Dawley female rats; details: systolic, average of 8 rats, 20 mg/kg with drinking water, two days after administration; control 210
[2] = test system: ICR female mice; test: Acute toxicity, single oral dose in mice; details: mouse, in vivo
Procedure: The aromatic compounds of the formula (I) according to the present invention were orally administered to mice at the dose of 500 mg/kg, but no fatalities were observed over a period of one week.
Five-week-old ICR female mice (5 mice per group) were bred for acclimation for a week. Then, the compounds of the present invention were dissolved in water, and orally administered to the mice in a single dosage (500 mg/kg).

[3] = target: T1, angiotensin II receptor subtype 1 (AT1) (Oryctolagus cuniculus, UniProt P34976); test: Binding to receptors: angiotensin II receptor subtype 1 (AT1); set-up: species or system rabbits (adrenal glands); details: rabbit adrenal glands, tracer 3H-angiotensin II
T1 construct: receptor : from adrenal glands in rabbits; from tissue; host or cells: rabbit adrenal glands
T1 sequence (P34976 1-359): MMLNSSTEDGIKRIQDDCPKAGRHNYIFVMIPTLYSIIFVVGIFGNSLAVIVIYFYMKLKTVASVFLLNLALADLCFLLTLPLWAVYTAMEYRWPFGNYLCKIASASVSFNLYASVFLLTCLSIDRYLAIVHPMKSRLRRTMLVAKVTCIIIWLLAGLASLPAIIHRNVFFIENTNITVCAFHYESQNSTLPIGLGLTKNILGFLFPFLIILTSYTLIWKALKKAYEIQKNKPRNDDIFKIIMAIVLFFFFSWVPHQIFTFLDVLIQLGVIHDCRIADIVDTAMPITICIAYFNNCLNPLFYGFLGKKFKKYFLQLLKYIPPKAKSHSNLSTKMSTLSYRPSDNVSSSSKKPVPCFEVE

[4] = test system: kidney disease model rats; test: Survival time of kidney diseased animals; assay type: in vivo, Sprague-Dawley female rats; details: 20 mg/kg/day with drinking water, observation period eight weeks (upper limit); control 5.0
[5] = test system: kidney disease model rats; test: Renal function indicatory value in kidney disease model rats; assay type: in vivo, Sprague-Dawley female rats; details: 20 mg/kg/day with drinking water, six weeks; for Creatinine clearance: 24 hours urine, control 0.22; for Creatinine / Blood urea nitrogen: serum; for Creatinine: control 2.0; for Blood urea nitrogen: control 100

| SMILES | Blood Pressure [1] | Number of deaths/number of survivals [2] | inhibition at 100 µM [3] | Average survival time [4] | Creatinine clearance [5] | Creatinine [5] | Blood urea nitrogen [5] |
| --- | --- | --- | --- | --- | --- | --- | --- |
| CCCCC(=O)N(Cc1ccc(C(=O)OCCCN(C)C)cc1)c1cc(C(=O)N2CCOCC2)ccc1N(C)C [Compound No. 2, 4-dimethylamino-3-N-[[[4-(3'-dimethylaminopropoxycarbonyl)phenyl]methyl]valeramido]benzoic acid morpholide] | 200 mmHg | 0/5 | 14% | 6.9 weeks | 0.33 mL/min | 1.3 mg/dL | 78 mg/dL |
| CCCCC(=O)N(Cc1ccc(C(=O)OCCN(CC)CC)cc1)c1cc(C(=O)N2CCOCC2)ccc1C(C)C [Compound No. 8, 3-N-[[[4-(2'-diethylaminoethoxycarbonyl)phenyl]methyl]valeramido]-4-i-propylbenzoic acid morpholide] | 203 mmHg | 0/5 | 11% | 6.9 weeks | 0.35 mL/min | 1.5 mg/dL | 78 mg/dL |
